Data: US9340590B2 (priority 2011, dated 2016)
Where two headings read alike, the source gives them in different places. Positions of bridges follow the written chain, without caps; N, C: chain ends. Residues, ends and D or L forms follow the SMILES beside them.

Experiments:
hNav1.3 = hNav1.3 (Homo sapiens, UniProt Q9NY46); assay: cell-based; conditions: IonWorks Quattro, read-out: IWQ Use Nav1.3
hNav1.5 = hNav1.5 (Homo sapiens, UniProt Q14524); assay: cell-based
[1] = clamped to −110 mV, depolarized to −10 mV, 5 min after compound, n=2

Chain of hNav1.5 (Q14524 whole entry, looked up): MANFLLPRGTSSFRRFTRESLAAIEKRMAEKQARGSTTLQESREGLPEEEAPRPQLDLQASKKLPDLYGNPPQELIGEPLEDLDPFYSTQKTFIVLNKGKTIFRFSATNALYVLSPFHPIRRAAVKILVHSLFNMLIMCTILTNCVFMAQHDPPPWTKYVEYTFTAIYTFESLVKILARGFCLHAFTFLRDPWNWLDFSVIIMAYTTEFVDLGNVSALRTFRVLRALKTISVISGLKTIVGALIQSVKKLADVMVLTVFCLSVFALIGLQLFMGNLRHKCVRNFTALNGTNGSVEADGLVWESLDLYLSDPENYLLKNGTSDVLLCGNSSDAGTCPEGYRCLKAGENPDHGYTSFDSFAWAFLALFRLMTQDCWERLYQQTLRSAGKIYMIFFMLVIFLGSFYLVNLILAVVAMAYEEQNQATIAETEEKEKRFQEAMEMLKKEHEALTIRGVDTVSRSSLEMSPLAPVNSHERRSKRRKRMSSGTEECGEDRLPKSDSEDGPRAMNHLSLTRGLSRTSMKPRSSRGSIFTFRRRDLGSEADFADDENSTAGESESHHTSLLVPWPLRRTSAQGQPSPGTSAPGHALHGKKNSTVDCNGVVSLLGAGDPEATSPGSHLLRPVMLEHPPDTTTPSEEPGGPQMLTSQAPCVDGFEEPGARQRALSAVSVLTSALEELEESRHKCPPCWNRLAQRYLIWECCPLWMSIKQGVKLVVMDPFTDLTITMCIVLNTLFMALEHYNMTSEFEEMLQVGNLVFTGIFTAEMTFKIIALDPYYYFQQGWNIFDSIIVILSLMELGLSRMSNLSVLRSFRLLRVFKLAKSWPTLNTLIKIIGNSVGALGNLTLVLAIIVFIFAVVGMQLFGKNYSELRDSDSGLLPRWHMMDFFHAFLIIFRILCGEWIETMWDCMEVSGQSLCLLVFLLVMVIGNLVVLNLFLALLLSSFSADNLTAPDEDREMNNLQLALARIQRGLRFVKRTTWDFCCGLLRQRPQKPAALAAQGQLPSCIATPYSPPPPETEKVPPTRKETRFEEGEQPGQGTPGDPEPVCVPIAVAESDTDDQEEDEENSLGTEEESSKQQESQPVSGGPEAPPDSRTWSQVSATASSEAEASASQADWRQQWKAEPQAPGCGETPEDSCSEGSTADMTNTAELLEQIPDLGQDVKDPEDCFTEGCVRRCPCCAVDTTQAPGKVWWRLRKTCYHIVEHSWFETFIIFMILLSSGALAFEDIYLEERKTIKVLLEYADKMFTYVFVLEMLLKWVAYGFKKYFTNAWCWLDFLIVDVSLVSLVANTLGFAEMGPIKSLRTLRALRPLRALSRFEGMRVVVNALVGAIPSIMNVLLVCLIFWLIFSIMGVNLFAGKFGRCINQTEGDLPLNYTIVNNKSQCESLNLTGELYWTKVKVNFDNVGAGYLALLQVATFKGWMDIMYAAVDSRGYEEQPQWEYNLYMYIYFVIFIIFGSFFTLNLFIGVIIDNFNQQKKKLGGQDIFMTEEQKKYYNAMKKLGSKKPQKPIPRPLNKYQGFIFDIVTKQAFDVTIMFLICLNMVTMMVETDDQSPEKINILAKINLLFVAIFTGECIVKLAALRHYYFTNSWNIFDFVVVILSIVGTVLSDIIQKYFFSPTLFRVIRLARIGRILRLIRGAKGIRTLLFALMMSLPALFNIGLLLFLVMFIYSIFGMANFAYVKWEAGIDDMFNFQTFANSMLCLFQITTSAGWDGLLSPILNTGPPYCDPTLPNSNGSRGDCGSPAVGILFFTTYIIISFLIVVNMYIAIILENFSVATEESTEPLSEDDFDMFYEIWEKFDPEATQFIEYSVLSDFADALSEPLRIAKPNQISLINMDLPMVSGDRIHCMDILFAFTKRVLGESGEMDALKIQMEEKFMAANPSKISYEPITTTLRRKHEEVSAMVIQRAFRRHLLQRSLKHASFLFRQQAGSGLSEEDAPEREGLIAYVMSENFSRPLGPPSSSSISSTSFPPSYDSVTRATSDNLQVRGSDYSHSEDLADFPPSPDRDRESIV
Chain of hNav1.3 (Q9NY46 whole entry, looked up): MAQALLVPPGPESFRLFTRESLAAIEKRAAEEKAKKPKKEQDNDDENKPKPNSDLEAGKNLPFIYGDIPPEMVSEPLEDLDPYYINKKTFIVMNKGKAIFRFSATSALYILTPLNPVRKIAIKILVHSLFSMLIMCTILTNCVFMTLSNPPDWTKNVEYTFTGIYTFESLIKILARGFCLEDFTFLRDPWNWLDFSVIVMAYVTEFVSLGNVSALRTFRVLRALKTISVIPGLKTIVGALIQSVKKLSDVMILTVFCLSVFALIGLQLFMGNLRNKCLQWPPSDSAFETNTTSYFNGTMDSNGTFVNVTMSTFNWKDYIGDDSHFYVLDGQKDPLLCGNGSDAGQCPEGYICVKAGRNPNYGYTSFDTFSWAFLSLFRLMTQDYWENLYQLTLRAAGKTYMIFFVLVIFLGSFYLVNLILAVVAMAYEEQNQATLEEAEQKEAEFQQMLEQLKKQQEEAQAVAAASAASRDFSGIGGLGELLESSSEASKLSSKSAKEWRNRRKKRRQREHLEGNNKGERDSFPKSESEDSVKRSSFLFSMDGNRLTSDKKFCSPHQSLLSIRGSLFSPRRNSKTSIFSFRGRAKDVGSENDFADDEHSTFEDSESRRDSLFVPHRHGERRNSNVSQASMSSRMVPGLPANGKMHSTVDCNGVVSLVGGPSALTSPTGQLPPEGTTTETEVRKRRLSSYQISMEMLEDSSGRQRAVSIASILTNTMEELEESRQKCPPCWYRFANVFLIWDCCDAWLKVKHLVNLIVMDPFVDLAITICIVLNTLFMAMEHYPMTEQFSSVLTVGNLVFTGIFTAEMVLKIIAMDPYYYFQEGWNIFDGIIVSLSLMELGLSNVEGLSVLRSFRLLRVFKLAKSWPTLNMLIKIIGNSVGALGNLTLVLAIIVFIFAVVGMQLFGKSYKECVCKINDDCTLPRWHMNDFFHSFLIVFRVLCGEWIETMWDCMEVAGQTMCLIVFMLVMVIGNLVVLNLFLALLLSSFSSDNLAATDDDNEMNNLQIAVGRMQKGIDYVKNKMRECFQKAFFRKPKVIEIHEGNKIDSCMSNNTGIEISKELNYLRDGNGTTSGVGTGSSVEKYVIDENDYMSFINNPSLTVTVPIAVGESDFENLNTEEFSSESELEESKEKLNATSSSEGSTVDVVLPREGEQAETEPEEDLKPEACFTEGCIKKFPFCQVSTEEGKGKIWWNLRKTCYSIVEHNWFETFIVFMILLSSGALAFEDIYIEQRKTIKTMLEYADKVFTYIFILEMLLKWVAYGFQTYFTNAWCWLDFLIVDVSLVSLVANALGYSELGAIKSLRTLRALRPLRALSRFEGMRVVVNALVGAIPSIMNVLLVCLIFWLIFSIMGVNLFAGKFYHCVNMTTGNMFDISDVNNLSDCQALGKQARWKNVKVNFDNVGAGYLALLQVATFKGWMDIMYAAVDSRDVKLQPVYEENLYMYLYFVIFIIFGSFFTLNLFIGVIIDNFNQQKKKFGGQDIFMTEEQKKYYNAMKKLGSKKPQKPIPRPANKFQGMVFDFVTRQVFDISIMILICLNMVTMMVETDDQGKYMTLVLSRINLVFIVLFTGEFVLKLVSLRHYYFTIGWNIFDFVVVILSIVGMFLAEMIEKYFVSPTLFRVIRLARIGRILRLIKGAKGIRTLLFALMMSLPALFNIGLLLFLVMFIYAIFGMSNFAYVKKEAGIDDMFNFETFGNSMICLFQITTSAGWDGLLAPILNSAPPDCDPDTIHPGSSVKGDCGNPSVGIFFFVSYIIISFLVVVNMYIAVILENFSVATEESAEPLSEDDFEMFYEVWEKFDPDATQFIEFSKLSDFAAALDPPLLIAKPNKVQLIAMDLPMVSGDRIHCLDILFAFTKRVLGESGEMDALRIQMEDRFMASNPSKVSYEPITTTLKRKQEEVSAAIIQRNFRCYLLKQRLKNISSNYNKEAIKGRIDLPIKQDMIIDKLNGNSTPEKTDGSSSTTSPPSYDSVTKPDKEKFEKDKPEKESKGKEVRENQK

CSCC[C@@H]1NC(=O)[C@H](Cc2ccccc2)NC(=O)CNC(=O)[C@H](CC(C)C)NC(=O)[C@@H](NC(=O)[C@@H](N)CC(=O)O)CSSC[C@@H]2NC(=O)[C@@H]3CSSC[C@@H](C(=O)N[C@@H](CCCCN)C(=O)N[C@@H](Cc4ccc(O)cc4)C(=O)N[C@H](C(=O)N[C@@H](Cc4ccccc4)C(N)=O)C(C)C)NC(=O)[C@H](Cc4c[nH]c5ccccc45)NC(=O)[C@H](CCCCN)NC(=O)[C@H](Cc4cnc[nH]4)NC(=O)[C@H]([C@@H](C)O)NC(=O)[C@H](CCCNC(=N)N)NC(=O)[C@H](CO)NC(=O)[C@H](CSSC[C@H](NC(=O)[C@H](CCCCN)NC(=O)[C@H](CCCNC(=N)N)NC1=O)C(=O)N[C@@H](CC(=O)O)C(=O)N1CCC[C@H]1C(=O)N[C@@H](CC(=O)O)C(=O)N[C@@H](CC(N)=O)C(=O)N[C@@H](CC(=O)O)C(=O)N[C@@H](CCCCN)C(=O)N3)NC(=O)[C@H](C(C)C)NC(=O)[C@H](CC(C)C)NC(=O)[C@H](CC(N)=O)NC(=O)[C@@H]1CCCN1C(=O)[C@H](CCCNC(=N)N)NC2=O [SEQ ID NO: 119, [Asp10]GpTx-1] (H-DCLGFMRKCDPDNDKCCRPNLVCSRTHKWCKYVF-NH2; disulfide 2-17, 9-23, 16-30)
IC50 (hNav1.3; Use): 0.16 µM | IC50 (hNav1.5; IonWorks Quattro, Use, read-out: IWQ Use Nav1.5): 11.3 µM

CC[C@H](C)[C@@H]1NC(=O)[C@@H]2CSSC[C@@H]3NC(=O)[C@H](C(C)C)NC(=O)[C@H](CC(C)C)NC(=O)[C@H](CC(N)=O)NC(=O)[C@@H]4CCCN4C(=O)[C@H](CCCNC(=N)N)NC(=O)[C@H](CSSC[C@H](NC(=O)[C@@H](N)CC(=O)O)C(=O)N[C@@H](CC(C)C)C(=O)N[C@@H](C)C(=O)N[C@@H](Cc4ccccc4)C(=O)N[C@@H](CCSC)C(=O)N[C@@H](CCCNC(=N)N)C(=O)N[C@@H](CCCCN)C(=O)N2)NC(=O)[C@H](CSSC[C@@H](C(=O)N[C@@H](CCCCN)C(=O)N[C@@H](Cc2ccc(O)cc2)C(=O)N[C@H](C(=O)N[C@@H](Cc2ccccc2)C(N)=O)C(C)C)NC(=O)[C@H](Cc2c[nH]c4ccccc24)NC(=O)[C@H](CCCCN)NC(=O)[C@H](Cc2cnc[nH]2)NC(=O)[C@H]([C@@H](C)O)NC(=O)[C@H](CCCNC(=N)N)NC(=O)[C@H](CO)NC3=O)NC(=O)[C@H](CCCCN)NC(=O)[C@H](CC(=O)O)NC(=O)[C@H](CC(N)=O)NC(=O)[C@H](CC(=O)O)NC(=O)[C@@H]2CCCN2C1=O [SEQ ID NO: 141] (H-DCLAFMRKCIPDNDKCCRPNLVCSRTHKWCKYVF-NH2; disulfide 2-17, 9-23, 16-30)
IC50 (hNav1.3; [1]): 0.21 µM | IC50 (hNav1.5; IWQ Use Nav1.5): 11.3 µM

CC[C@H](C)[C@@H]1NC(=O)[C@@H]2CSSC[C@@H]3NC(=O)[C@H](C(C)C)NC(=O)[C@H](CC(C)C)NC(=O)[C@H](CC(N)=O)NC(=O)[C@@H]4CCCN4C(=O)[C@H](CCCNC(=N)N)NC(=O)[C@H](CSSC[C@H](NC(=O)[C@@H](N)CC(=O)O)C(=O)N[C@@H](CC(C)C)C(=O)NCC(=O)N[C@@H](Cc4ccccc4)C(=O)N[C@@H](CCC(=O)O)C(=O)N[C@@H](CCCNC(=N)N)C(=O)N[C@@H](CCCCN)C(=O)N2)NC(=O)[C@H](CSSC[C@@H](C(=O)N[C@@H](CCCCN)C(=O)N[C@@H](Cc2ccc(O)cc2)C(=O)N[C@H](C(=O)N[C@@H](Cc2ccccc2)C(N)=O)C(C)C)NC(=O)[C@H](Cc2c[nH]c4ccccc24)NC(=O)[C@H](CCCCN)NC(=O)[C@H](Cc2cnc[nH]2)NC(=O)[C@H]([C@@H](C)O)NC(=O)[C@H](CCCNC(=N)N)NC(=O)[C@H](CO)NC3=O)NC(=O)[C@H](CCCCN)NC(=O)[C@H](CC(=O)O)NC(=O)[C@H](CC(N)=O)NC(=O)[C@H](CC(=O)O)NC(=O)[C@@H]2CCCN2C1=O [SEQ ID NO: 144] (H-DCLGFERKCIPDNDKCCRPNLVCSRTHKWCKYVF-NH2; disulfide 2-17, 9-23, 16-30)
IC50 (hNav1.3; [1]): 20.4 µM | IC50 (hNav1.5; IonWorks Quattro, clamped to −110 mV, depolarized to −10 mV, 5 min after compound, n=2, read-out: IWQ Use Nav1.5): 9.39 µM
